Laboratory results from patent publication US4861772A, “Method and composition to treat panic syndrome” (Hoffmann-La Roche Inc., priority 1988, dated 1989).

What was measured:
[1] = tested on: patients with panic syndrome; test: Side effects in the clinical study in patients with panic syndrome; assay type: in vivo, human
Experimental: (§1) The clinical study is a double-blind, parallel group study in which in each case 12 patients with panic syndrome were treated either with compound A, that is, tablets containing 0.5 mg of active substance or with a corresponding placebo. The course of the trial was the following. After examining the inclusion and exclusion criteria and recording the basic data, the patients each received 20 tablets with instructions to take one tablet at the approach or beginning of the next panic attack. The medicaments previously used had been withdrawn before the commencement of the study. In the case of a satisfactory outcome of treatment the initial dosage was to be used a once more. Then, for the second investigation, the investigator was to be consulted. In the case of an unsatisfactory outcome of therapy, the dosage in the case of the second panic attack was to be increased to two tablets, which dosage was to be repeated in the case of success and, in the case of failure, was to be increased to three tablets. […] Patients with ineffective medication were to be discharged from the trial. Patients in whom an effective dosage had been found would use that dose in the next twelve panic states. In cases in which withdrawal phenomena of the preceding treatment played a role, the twelve treatments of the main treatment phase can be extended with an additional twelve dosages in a further phase, additional phase.
(§2) During the treatment, the patients were required to carry a treatment day book. On the basis of the remarks contained therein, the statements of the patients as well as specific observations, the results of the trial at the end of the titration phase (investigation 2), at the end of the main treatment phase (investigation 3) and, if desired, at the end of the additional phase (investigation 4) were introduced into the trial data by the investigator. The following psychiatric scales were filled out as standardized comparative investigations at all points in time of the trial: anxiety scale according to Covi, depression scale according to Raskin, self-evaluated anxiety scale (SAS) and self-evaluated depression scale (SDS) according to Zung, as well as the withdrawal symptom scale (WSS) according to Merz & Ballmer.
The following side effects were found:
^3 MRA = "Mean Risk per Administration", i.e. the risk at which the
particular side effect is incurred by a single intake of the medicament.
From the list of side effects, it is evident that the […] has less benzodiazepine-typical side effects of the sedative and motor type.

[2] = tested on: patients; test: Clinically relevant effects noticed by patients (onset); assay type: in vivo, human; settings: 1 mg perorally in tablet form; generally
Experimental: (§3) After 1 mg of compound A has been taken perorally in tablet form a maximal active substance level is already reached after 45 minutes. Clinically relevant effects, that is, effects noticed by patients, generally occur already after 10 minutes.

[3] = tested on: patients with panic syndrome; test: Double-blind, parallel group clinical study in patients with panic syndrome (end point analysis); assay type: in vivo, human
Experimental: The results of a clinical study will be referred to as an example of the use and the effect of discontinuous therapy of panic attacks by means of compound A.
as §1, §2
In each case, 12 patients were treated with compound A or placebo. In the group treated with compound A, 7 were male and 5 female with an average age of 33±5.4 years, of which--according to the DSM-III classification--2 suffered from panic syndrome without agoraphobia and 10 suffered from panic syndrome with agoraphobia. The diagnosis of a major depression was also established in 6 cases.
The average duration of the disorder amounted to 98±83 months in the group treated with compound A and to 143±164 months in the placebo group. The weekly frequency of panic states was 5.6±3.2 in the group treated with compound A and 7.6±5.6 in the placebo group. In this calculation, a runaway in the placebo group which fell outside the average value and the five-fold standard deviation was not taken into consideration. The average duration of the panic attacks was 27±17 minutes in the group treated with compound A and 25±16 minutes in the placebo group. Nine (9) patients treated with compound A and 10 placebo patients were able to predict attacks with an average prediction time of 11±12 minutes in the group treated with compound A and 10±7 minutes in the placebo group.
Because of the different lengths of the total treatment, average duration 43±27 days in the group treated with compound A and 28±32 days in the placebo group and because of the unequal distribution of the exclusions and drop-outs, the following results are presented in the form of an end point analysis: […]

[4] = Plasma level after peroral intake of compound A in tablet form; assay type: in vivo; settings: human, po, 1 mg perorally in tablet form
Experimental: as §3

## CC(C)(C)OC(=O)c1ncn2c1[C@@H]1CCCN1C(=O)c1c(Br)cccc1-2 [Compound A, t-butyl (S)-8-bromo-11,12,13,13a-tetrahydro-9-oxo-9H-imidazo[1,5-a]pyrrolo[2,1-c][1,4]benzodiazepine-1-carboxylate]
[1]; CGI evaluation, in total
  quality of the observed side effects: only of minimal quality
[1]; all together
  tolerance: satisfactory tolerance
[1]; number of patients, of 12
  Coarse muscular relaxation, No. Pat.: 1
  Dopiness, No. Pat.: 5
  Drowsiness, No. Pat.: 9
  Dry mouth, No. Pat.: 1
  Headache, No. Pat.: 1
  Nausea, No. Pat.: 1
  Slurred speech/"heavy tongue", No. Pat.: 2
  Unsteadiness when walking or standing, No. Pat.: 4
[1]; number registered
  Coarse muscular relaxation, No. Reg.: 2
  Dopiness, No. Reg.: 60
  Drowsiness, No. Reg.: 45
  Dry mouth, No. Reg.: 2
  Headache, No. Reg.: 2
  Nausea, No. Reg.: 9
  Slurred speech/"heavy tongue", No. Reg.: 5
  Unsteadiness when walking or standing, No. Reg.: 13
[1]; on average
  duration of side effects as part of the total treatment period: 0.96±1.01%
  total duration of side effects: 7.8 ± 7.6 h
[1]; risk per single intake
  Coarse muscular relaxation, MRA (Mean Risk per Administration): 0.7%
  Dopiness, MRA (Mean Risk per Administration): 21.8%
  Drowsiness, MRA (Mean Risk per Administration): 16.4%
  Dry mouth, MRA (Mean Risk per Administration): 0.7%
  Headache, MRA (Mean Risk per Administration): 0.7%
  Nausea, MRA (Mean Risk per Administration): 3.3%
  Slurred speech/"heavy tongue", MRA (Mean Risk per Administration): 1.8%
  Unsteadiness when walking or standing, MRA (Mean Risk per Administration): 4.7%
[2]
  time to clinically relevant effects (noticed by patients): 10 min
[3]; conclusion from the clinical comparison
  antipanic activity: specific antipanic activity
[3]; n = 12, p < 0.05 vs placebo
  Δ frequency of attack per week (n): -2.6 ± 3.3 n
[3]; n = 12, p < 0.05 vs placebo (Mann-Whitney U test)
  Average treatment period: 43 ± 27 days
[3]; n.s. vs placebo
  Δ withdrawal symptom scale (WSS): -3.9 ± 6.8
[3]; p < 0.001 vs placebo
  Δ Covi anxiety scale (outside evaluation): 3.3 ± 3.2
  Δ Raskin depression scale (outside evaluation): 1.9 ± 3.2
  Δ Zung anxiety scale (self evaluation): 6.4 ± 8.5
  Δ Zung depression scale (self evaluation): 4.5 ± 9.0
[3]; scale as initial intensity, p < 0.001 vs placebo
  Average improvement in phobias: 2.2 ± 1.0
[3]; score 4 = complete, 3 = strong, 2 = weak, 1 = no effect, p < 0.01 vs placebo
  Reduction in the intensity of attack: 3.5 ± 0.9
[3]; tablets of 0.5 mg, n = 12, p < 0.001 vs placebo
  Average number of tablets at the end of treatment: 1.4 ± 0.9
[3]; vs placebo
  secondary panic symptoms in untreated intervals between successive panic attacks: reduced significantly better than by placebo
[4]; read-out: time to maximal active substance level (converted)
  Tmax: 0.75 h
[4]; read-out: β-half life (converted)
  half-life: 2.25 h
